How the values were obtained:
Schiosaccharomyces Pombe = test: Mutagenic action of urines of intragastrically treated rats on yeast; assay type: cell-based; details: urines of rats treated intragastrically with two doses, with metabolic activation, beta-glucoronidase absent
[1] = test system: skin temperature of the mouse's paw; test: Peripheral vessel-dilating activity in the mouse (skin temperature of hind paws); assay type: in vivo; details: for Temperature (°C) of the hind paws (n=10): intravenous; for Temperature (°C) of the hind paws: oral
Experimental: The method of Richter W. (Acta Pharm. Toxicol. 21, 91; 1974) was used; it consists in determining, at fixed time intervals after the treatment, the skin temperature of the mouse's paw, by keeping the animals in rooms at a constant temperature of 21°C.
Some groups of ten male mouses each have been used; the weight of each animal was 30 g approximately.
The compound according to the Example 1 has been tested "per os" at three basic levels of the doses (0,125 - 0,25 - 0,5 mM/kg) and by intravenous injection at two dose levels (0,015 and 0,03 mM/kg), in comparison with one sole dose of Papaverin and chlorhydrated Buflomedil (0,5 mM/kg "per os" and 0,03m M/kg intravenous). The observation of the skin temperature at the mouse's paw was made before the treatment, 30, 60 and 120 minutes after the "per os" treatment, […] (A-Hl Ellab) connected with an Ellab electric recorder. Of each animal the temperature of both hind paws has been measured, and the values obtained have been averaged .

red cells in the rat [2] = test: Red cell deformability / filtration, Schmidt-Schönbein method; assay type: in vivo; details: dose 3 x 0,5 mM/kg/os, listed as Compound as Ex. 1
Source text: (§1) steresis (Teiltel P.: Nouv. Rev. Franç. Hématol. 7, 195, 1967). Any alteration, almost undoubtely at the level of the red cell's membrane, cause some damaging variations of the red cell's elasticity thus making more difficult the passing through the capillary vessels having more reduced diameter, and therefore increasing the flow resistance in the peripheral vessels systems. In order to determine the effect caused by the compound according to the Example 1, on these features of the red cell, the method described by Schmidt, Schonbein and colleagues (Blut 26, 369, 1973) has been used.
In the circulatory flow, the above mentioned capillary vessels being excluded, the blood cells do normally circulate being attached between each other because of their adhesiveness. In order to study this adhesion force, the above mentioned Teitel method has been used. Male rats of 150 g body weight approximately have been employed, and they have been treated for three consecutive days with 0,5 mM/kg/os of the compound according to the Example 1, or otherwise Buflomedil, or even Pentosiphillin used as comparison substance. After the last treatment the animals, without eating from 18 hours, have been killed in a light ethereal anaesthesy and the blood was collected over an 0,2 molar EDTA (9 and 1 volumes respectively). The red cells filtering possibility, measured with the Teitel method, wherein the quantity of red cells passing, in high haematocritical conditions, through a paper filter with holes of 20-40 µm in a previously determined time, has been ascertained as follows: the blood was centrifuged for ten minutes at 2000 rpm in order to obtain the massing of the red cells, two ml of the blood collected as above were put into an upside down turned cone made with filtering paper, being previously wetted with a physiological solution. The volume passing through the filter in 2 - 4 - 8 and 16 minutes is then measured. […]

[3] = test system: Hypertriglyceridaemia caused by ethanole in the rats; test: Hypertriglyceridaemia caused by ethanol in rats, activity at three dose levels; assay type: in vivo; details: rat; for Triglycerids M ± E.S.: 4 hours after last treatment; for Triglycerids % vs contr. positivi: 4 hours after treatment
Source text: For this test group the methods described by Sistori C.R. and colleagues (Atherosclerosis 30, 45; 1978) is followed.
The hypertriglyceridaemia has been induced into the male rats having a body weight of 160 - 170 g by giving them to drink, for 4 consecutive days, a solution of 10% ethanole in water.

[4] = test system: Thyphirium salmonella strains (TA 98, TA 100, TA 1535, and TA 1538); assay type: cell-based
Source text: (§2) The compound according to the Example 1 has been tested, in order to check and see its mutagenic effects.

[5] = test system: pl strain of Schiosaccharomyces Pombe; test: Frequency of mutations in yeast, with and without microsomal fraction; assay type: cell-based; details: tested dosages, with and without microsmial fraction
Source text: as §2

red cells in the rat [6] = test: Red cell adhesivity / filtration, Teitel method; assay type: in vivo; details: listed as Compound as Ex. 1
Source text: as §1
In the circulatory flow, the above mentioned capillary vessels being excluded, the blood cells do normally circulate being attached between each other because of their adhesiveness. In order to study this adhesion force, the above mentioned Teitel method has been used. Male rats of 150 g body weight approximately have been employed, and they have been treated for three consecutive days with 0,5 mM/kg/os of the compound according to the Example 1, or otherwise Buflomedil, or even Pentosiphillin used as comparison substance. After the last treatment the animals, without eating from 18 hours, have been killed in a light ethereal anaesthesy and the blood was collected over an 0,2 molar EDTA (9 and 1 volumes respectively). The red cells filtering possibility, measured with the Teitel method, wherein the quantity of red cells passing, in high haematocritical conditions, through a paper filter with holes of 20-40 µm in a previously determined time, has been ascertained as follows: the blood was centrifuged for ten minutes at 2000 rpm in order to obtain the massing of the red cells, two ml of the blood collected as above were put into an upside down turned cone made with filtering paper, being previously wetted with a physiological solution. The volume passing through the filter in 2 - 4 - 8 and 16 minutes is then measured. The average filtration time T 1/2 is reckoned on semi-logarithmic paper by putting on the abscissae the logarithm of the time, and on the ordinates the percentage of blood filtered. In order to follow the Schmidt Schönbein method, the here after described proceeding has been performed: 0,2 ml of a suspension of red cells at 2% obtained by diluting the blood with the autological plasma, then it was placed into an appropriate device permitting to filter this blood through a filter (millipores) of 5 µm mashes at a filtration pressure of 50 mm water. With a chronometer one determines the time required for the passage of the whole sample through the filter.
At time same time, one measures, in the same conditions, the same parameter for a plasma sample. One calculates then the relative filtration time by dividing the time required to filter the diluted blood sample by the time being necessary to filter the plasma sample. For each group the average and the standard error of the individual data obtained was reckoned. The statistical evaluation was obtained by means of the Dunnett test.

[7] = test system: five strains of Typhumurium Salmonella; test: Mutagenic action of urines of intragastrically treated rats on Salmonella; assay type: cell-based; details: urines of rats treated intragastrically with two doses, with metabolic activation, beta-glucoronidase absent
HeLa cells (DnA-repair) = test: Mutagenic action of urines of intragastrically treated rats on HeLa cells (DNA repair); assay type: cell-based, human; details: urines of rats treated intragastrically with two doses, with metabolic activation, beta-glucoronidase absent

COc1cc(OC)c(C(=O)CCCN2CCCC2)c(OC)c1 [Example 1, 4-(1 pyrrholydinyl)-1-(2,4,6 trimethoxypheniyl)-1-nicotinized butanone]
mutagenic action (Schiosaccharomyces Pombe): any mutagenic action did not result | Temperature (°C) of the hind paws (n=10) ([1]; dose 0,015 mM/kg/iv, 0 minutes (before the treatment)): 24,3 ± 0,25 °C | Temperature (°C) of the hind paws (n=10) ([1]; dose 0,015 mM/kg/iv, 30 minutes from the treatment): 25,9 ± 0,18 °C | Temperature (°C) of the hind paws (n=10) ([1]; dose 0,015 mM/kg/iv, 60 minutes from the treatment): 25,8 ± 0,30 °C | Temperature (°C) of the hind paws (n=10) ([1]; dose 0,015 mM/kg/iv, 120 minutes from the treatment): 25,4 ± 0,22 °C | Temperature (°C) of the hind paws (n=10) ([1]; dose 0,030 mM/kg/iv, 0 minutes (before the treatment), listed as Compound according to the Ex.1): 24,2 ± 0,20 °C | Temperature (°C) of the hind paws (n=10) ([1]; dose 0,030 mM/kg/iv, 30 minutes from the treatment, listed as Compound according to the Ex.1): 26,7 ± 0,31 °C | Temperature (°C) of the hind paws (n=10) ([1]; dose 0,030 mM/kg/iv, 60 minutes from the treatment, listed as Compound according to the Ex.1): 26,5 ± 0,27 °C | Temperature (°C) of the hind paws (n=10) ([1]; dose 0,030 mM/kg/iv, 120 minutes from the treatment, listed as Compound according to the Ex.1): 26,3 ± 0,30 °C | Temperature (°C) of the hind paws ([1]; dose 0,125 mM/kg/os, 0 minutes (before the treatment)): 24,3 ± 0,24 °C | Temperature (°C) of the hind paws ([1]; dose 0,125 mM/kg/os, 30 minutes from the treatment): 24,7 ± 0,32 °C | Temperature (°C) of the hind paws ([1]; dose 0,125 mM/kg/os, 60 minutes from the treatment): 024,9 ± 0,30 °C | Temperature (°C) of the hind paws ([1]; dose 0,125 mM/kg/os, 120 minutes from the treatment): 25,2 ± 0,35 °C | Temperature (°C) of the hind paws ([1]; dose 0,250 mM/kg/os, 0 minutes (before the treatment)): 24,7 ± 0,20 °C | Temperature (°C) of the hind paws ([1]; dose 0,250 mM/kg/os, 30 minutes from the treatment): 25,2 ± 0,44 °C | Temperature (°C) of the hind paws ([1]; dose 0,250 mM/kg/os, 60 minutes from the treatment): 25,8 ± 0,32 °C | Temperature (°C) of the hind paws ([1]; dose 0,250 mM/kg/os, 120 minutes from the treatment): 25,5 ± 0,50 °C | Temperature (°C) of the hind paws ([1]; dose 0,500 mM/kg/os, 0 minutes (before the treatment), listed as Compound according to the Example 1): 24,6 ± 0,25 °C | Temperature (°C) of the hind paws ([1]; dose 0,500 mM/kg/os, 30 minutes from the treatment, listed as Compound according to the Example 1): 26,8 ± 0,30 °C | Temperature (°C) of the hind paws ([1]; dose 0,500 mM/kg/os, 60 minutes from the treatment, listed as Compound according to the Example 1): 27,5 ± 0,40 °C | Temperature (°C) of the hind paws ([1]; dose 0,500 mM/kg/os, 120 minutes from the treatment, listed as Compound according to the Example 1): 27,2 ± 0,45 °C | Schmidt-Schönbein method Δ % vs contr. (red cells in the rat [2]): 46,2% | Triglycerids M ± E.S. ([3]; dose 0,5 mM/kg/os once a day for 4 days): 148,2 ± 16,4 mg/100 ml | Triglycerids % vs contr. positivi ([3]; dose 0,5 mM/kg/os): -26,8% | Triglycerids M ± E.S. ([3]; dose 1,0 mM/kg/os once a day for 4 days): 135,0 ± 12,6 mg/100 ml | Triglycerids % vs contr. positivi ([3]; dose 1,0 mM/kg/os): -33,6% | Triglycerids M ± E.S. ([3]; dose 2,0 mM/kg/os once a day for 4 days): 112,6 ± 14,3 mg/100 ml | Triglycerids % vs contr. positivi ([3]; dose 2,0 mM/kg/os): -44,4% | decrease (of triglycerides vs positive controls) ([3]; dose of 0,4 mM/kg): 26,8% | decrease (of triglycerides vs positive controls) ([3]; dose of 1 mM/kg per os): 33,3% | decrease (of triglycerides vs positive controls) ([3]; dose of 2 mM/kg): 44,4% | mutagenic activity [4]: did not show any mutagenic activity | frequency of mutations [5]: did not increase | Teitel method T1/2 min. M ± E.S. (red cells in the rat [6]; dose 3 x 0,5 mM/kg/os (three consecutive days)): 2,26 ± 0,21 min. | Teitel method Δ % vs contr. (red cells in the rat [6]; dose 3 x 0,5 mM/kg/os): 37,9% | mutagenic action [7]: any mutagenic action did not result | mutagenic action (HeLa cells (DnA-repair)): any mutagenic action did not result

Reference: patent EP0470323A2, “New salts of the nicotinic acid with aminobenzylic compounds and their pharmaceutical use” (BROMLEY LIMITED, priority 1990, dated 1992)
